Data as given in PMC4583543, “Development and Validation of a Novel Leishmania donovani Screening Cascade for High-Throughput Screening Using a Novel Axenic Assay with High Predictivity of Leishmanicidal Intracellular Activity” (PLoS Neglected Tropical Diseases, 2015).
Like-named read-outs stand apart in the source and are kept apart here.

Legend:
HepG2 cells = assay: HepG2 assay (mammalian counterscreen, resazurin); type: cell-based, human; settings: for EC50: Homo sapiens, read-out: HepG2 (potency, pEC50) (converted)
Description: Compounds were dispensed into 384-well assay plates by acoustic dispensing (LabCyte ECHO). […] Potencies are reported as pEC50 (-LOG(EC50[M])). All data was processed using IDBS ActivityBase. […] For compounds with low activity and poor definition of the curve top, B was fixed to 100. For the determination of the reference compound panel potency, all experiments were carried out with a minimum of three independent repeats. The assay conditions are described previously.

THP-1 cells = assay: THP-1 host cell toxicity in the intramacrophage assay; type: cell-based, human; settings: for EC50: Homo sapiens
Description: (§1) Compounds were dispensed into 384-well assay plates by acoustic dispensing (LabCyte ECHO). […] Potencies are reported as pEC50 (-LOG(EC50[M])).
(§2) All data was processed using IDBS ActivityBase. […] Potency plates were normalised to DMSO control (0% effect) and 2μM amphotericin B control (100% effect). […] For compounds with low activity and poor definition of the curve top, B was fixed to 100. For the determination of the reference compound panel potency, all experiments were carried out with a minimum of three independent repeats.
(§3) The assay conditions are described previously. Briefly PMA differentiated THP-1 cells were infected overnight with eGFP expressing LdBOB amastigote-like cells at a multiplicity of infection of 5. Next, any remaining free amastigote-like cells are removed and compounds are added. The microscopy-based read-out is done after a four day compound incubation.

[1] = system: LdBOB axenic amastigote-like cells; assay: Novel (cidal) axenic amastigote assay, BacTiter-Glo read-out; type: cell-based, Leishmania donovani
Source text: Leishmania donovani BOB cells (LdBOB) used in this study are a cloned line from strain MHOM/SD/62/1S-CL2 [13]. Cultures were maintained as described previously. Compounds were dispensed into 384-well assay plates by acoustic dispensing (LabCyte ECHO). […] Potencies are reported as pEC50 (-LOG(EC50[M])). All data was processed using IDBS ActivityBase. […] For compounds with low activity and poor definition of the curve top, B was fixed to 100. For the determination of the reference compound panel potency, all experiments were carried out with a minimum of three independent repeats. Test compounds were pre-dispensed into white 384 well plates (Corning). For library screens one compound per well was tested at the indicated final concentration. […] DMSO, zero percent effect control: cells at starting concentration. The zero percent effect control wells are left empty during the course of the assay. […] The assay volume is 25 μl / well. […] Plates were then sealed with clear film and relative luminescence was detected using a plate reader (Victor 3) from Perkin Elmer or PHERAstar FS from BMG LABTECH, with 0.5 s detection time per well).

[2] = system: eGFP expressing LdBOB amastigote-like cells in PMA differentiated THP-1 cells; assay: Intramacrophage (intracellular, INMAC) assay; type: cell-based, Leishmania donovani; settings: for EC50: Leishmania donovani
Description: as §1, §2, §3

[3] = HepG2, reference compound panel, mean (standard deviation), 72 h
[4] = THP-1, reference compound panel, mean (standard deviation), host cell toxicity, read-out: THP-1 (potency, pEC50) (converted)
[5] = Leishmania donovani; read-out: Novel (axenic assay potency, pEC50) (converted)
[6] = THP-1, 96 h, reference compound panel, mean (standard deviation), minimum three independent repeats, four day incubation, read-out: Intramacrophage (potency, pEC50) (converted)
[7] = THP-1, DOS library compounds, dose response, read-out: INMAC (intracellular) pEC50 (converted)
[8] = single concentration screen at 25 μM
[9] = THP-1, DOS library compounds, dose response, read-out: THP1 pEC50 (converted)
[10] = Leishmania donovani; DOS library compounds, ten-point dose response; read-out: cAX pEC50 (converted)

Question: Which EC50 (HepG2 cells; [3]) does the source give for `CC[C@@H]([C@H](C)O)n1ncn(-c2ccc(N3CCN(c4ccc(OC[C@@H]5CO[C@@](Cn6cncn6)(c6ccc(F)cc6F)C5)cc4)CC3)cc2)c1=O` [Posaconazole] here?
Answer: 8.51 µM

Question: What about the EC50 (THP-1 cells; [4]) of the same molecule?
Answer: 17.8 µM

Question: And the EC50 [1, 5]?
Answer: 36.3 µM

Question: What about the EC50 [2, 6] of the same molecule?
Answer: 18.6 µM

Question: How did the EC50 [2, 7] turn out when `CCCNC(=O)N1[C@H](CO)[C@H](c2ccc(-c3cccc(OC)c3)cc2)[C@@H]1C#N` [BRD6650 SRR stereoisomer] was run?
Answer: 31.6 µM

Question: With `OC(c1cc(C(F)(F)F)nc2c(C(F)(F)F)cccc12)C1CCCCN1` (stereo not shown) [Mefloquine] as the molecule, how does the EC50 (HepG2 cells; [3]) read?
Answer: 9.77 µM

Question: And the EC50 (THP-1 cells; [4])?
Answer: 12 µM

Question: And the EC50 [1, 5]?
Answer: > 50.1 µM

Question: What about the EC50 [2, 6] of the same molecule?
Answer: 8.51 µM

Question: And the “activity in words (intracellular versus novel axenic)” value ([2]; reference compound panel)?
Answer: only active in the intracellular assay

Question: How did the “activity in the initial HTS assay” value [1, 8] turn out when `CCCNC(=O)N1[C@H](CO)[C@H](c2ccccc2-c2ccc(OC)cc2)[C@@H]1C#N` [BRD2647 SRR stereoisomer] was run?
Answer: inactive

Question: With `CCCNC(=O)N1[C@H](C#N)[C@H](c2ccccc2-c2ccc(C)cc2)[C@@H]1CO` [BRD4332] as the molecule, how does the EC50 (THP-1 cells; [9]) read?
Answer: > 50.1 µM

Question: What about the EC50 [1, 10] of the same molecule?
Answer: 0.631 µM

Question: And the EC50 [2, 7]?
Answer: 6.31 µM

Question: With `CC1CS(=O)(=O)CCN1/N=C/c1ccc([N+](=O)[O-])o1` (stereo not shown) [Nifurtimox] as the molecule, how does the EC50 (HepG2 cells; [3]) read?
Answer: > 50.1 µM

Question: And the EC50 (THP-1 cells; [4])?
Answer: > 34.7 µM

Question: What about the EC50 [1, 5] of the same molecule?
Answer: 11.2 µM

Question: And the EC50 [2, 6]?
Answer: > 34.7 µM

Question: `CCCNC(=O)N1[C@H](C#N)[C@H](c2ccc(C3=CCCCC3)cc2)[C@@H]1CO` [BRD5744] was tested. Which EC50 (THP-1 cells; [9]) did it give?
Answer: > 50.1 µM

Question: And the EC50 [1, 10]?
Answer: 0.794 µM

Question: And the EC50 [2, 7]?
Answer: 2 µM

Question: How did the EC50 (HepG2 cells; [3]) turn out when `NC(=O)c1cnccn1` [Pyrazinamide] was run?
Answer: > 50.1 µM

Question: And the EC50 (THP-1 cells; [4])?
Answer: > 34.7 µM

Question: And the EC50 [1, 5]?
Answer: > 50.1 µM

Question: What about the EC50 [2, 6] of the same molecule?
Answer: > 34.7 µM

Question: What does the source list for `CSc1ccc(OCc2ncc([N+](=O)[O-])n2C)cc1` [Fexinidazole]?
Answer: EC50 (HepG2 cells; [3]): > 50.1 µM; EC50 (THP-1 cells; [4]): > 34.7 µM; EC50 [1, 5]: 11.5 µM; EC50 [2, 6]: > 34.7 µM

Question: For `CCCNC(=O)N1[C@H](CO)[C@@H](c2ccccc2-c2ccc(OC)cc2)[C@@H]1C#N` [BRD2647 SSR stereoisomer], which “activity in the initial HTS assay” value [1, 8] is on record?
Answer: inactive

Question: What does the source list for `NC[C@@H]1O[C@H](O[C@H]2[C@@H](O)[C@H](O[C@@H]3[C@@H](O)[C@H](N)C[C@H](N)[C@H]3O[C@H]3O[C@H](CO)[C@@H](O)[C@H](O)[C@H]3N)O[C@@H]2CO)[C@H](N)[C@@H](O)[C@@H]1O` [Paromomycin]?
Answer: EC50 (HepG2 cells; [3]): > 50.1 µM; EC50 (THP-1 cells; [4]): > 34.7 µM; EC50 [1, 5]: > 50.1 µM; EC50 [2, 6]: > 34.7 µM

Question: How did the EC50 (HepG2 cells; HepG2, 72 h) turn out when `C[C@@]12C(=O)OC(=O)[C@]1(C)[C@H]1CC[C@@H]2O1` [Cantharidin] was run?
Answer: 1.35 µM

Question: And the EC50 (THP-1 cells; THP-1, read-out: THP-1 (potency, pEC50) (converted))?
Answer: 2.75 µM

Question: And the EC50 ([1]; Leishmania donovani, read-out: Novel (axenic assay potency, pEC50) (converted))?
Answer: 4.37 µM

Question: And the EC50 ([2]; THP-1, 96 h, read-out: Intramacrophage (potency, pEC50) (converted))?
Answer: 13.2 µM

Question: With `CCCNC(=O)N1[C@H](C#N)[C@H](c2ccc(-c3cccc(OC)c3)cc2)[C@H]1CO` [BRD6650 SSS stereoisomer] as the molecule, how does the EC50 [2, 7] read?
Answer: 20 µM

Question: How did the EC50 (THP-1 cells; [9]) turn out when `COc1ccc(-c2ccccc2[C@H]2[C@@H](C#N)N(C(=O)NC(C)C)[C@H]2CO)cc1` [BRD3029] was run?
Answer: > 50.1 µM

Question: What about the EC50 [1, 10] of the same molecule?
Answer: 1.58 µM

Question: What about the EC50 [2, 7] of the same molecule?
Answer: 12.6 µM

Question: For `C=CC(C)(C)c1cc(/C=C/C(=O)c2ccc(O)cc2)c(OC)cc1O` [Licochalcone A], which “HepG2 (potency, pEC50)” value (HepG2 cells; reference compound panel, mean (standard deviation), 72 h) is on record?
Answer: 4.44 (0.09)

Question: What about the “THP-1 (potency, pEC50)” value (THP-1 cells; reference compound panel, mean (standard deviation), host cell toxicity) of the same molecule?
Answer: 4.46 (0.01)

Question: And the “Novel (axenic assay potency, pEC50)” value ([1]; reference compound panel; mean (standard deviation), minimum three independent repeats; top concentration 50 μM; pEC50 = -LOG(EC50[M]))?
Answer: 4.67 (0.15)

Question: What about the “Intramacrophage (potency, pEC50)” value ([2]; reference compound panel, mean (standard deviation), minimum three independent repeats, four day incubation) of the same molecule?
Answer: 4.65 (0.17)

Question: How did the EC50 [2, 7] turn out when `CCCNC(=O)N1[C@H](C#N)[C@@H](c2ccccc2-c2ccc(OC)cc2)[C@@H]1CO` [BRD2647 RRS stereoisomer] was run?
Answer: 39.8 µM

Question: For `CCCNC(=O)N1[C@H](C#N)[C@@H](c2ccc(-c3cccc(OC)c3)cc2)[C@H]1CO` [BRD6650 SRS stereoisomer], which EC50 [2, 7] is on record?
Answer: 20 µM

Question: Which EC50 [2, 7] does the source give for `CCCNC(=O)N1[C@H](CO)[C@@H](c2ccc(-c3cccc(OC)c3)cc2)[C@@H]1C#N` [BRD6650 SSR stereoisomer] here?
Answer: 10 µM

Question: Which EC50 (THP-1 cells; [9]) does the source give for `COc1ccc(-c2ccccc2[C@H]2[C@@H](C#N)N(C(=O)NC3CCCC3)[C@H]2CO)cc1` [BRD9613] here?
Answer: > 50.1 µM

Question: And the EC50 [1, 10]?
Answer: 1.58 µM

Question: And the EC50 [2, 7]?
Answer: 10 µM
